# Test results reported in publication PMC10541198, “Specific quinone reductase 2 inhibitors reduce metabolic burden and reverse Alzheimer’s disease phenotype in mice” (The Journal of Clinical Investigation, 2023).
# Values joined by “and” are separate entries in the source; they are usually repeats but may differ in a detail not shown here. Equal entries are not always repeated.
# What was measured:
# Assay type in all cases: in vivo, mouse
# [1] = system: 5xFAD mice; experiment: General wellbeing / adverse effects during 1 month ingestion; settings: 8-to-9-month-old 5xFAD, both sexes, 50 mg/kg in drinking water, month-long
# Protocol: We next aimed to test the effect of QR2 inhibition in AD model mice using YB-537, taking advantage of its extremely high specificity, solubility, and lack of toxicity. First, we determined YB-537 pharmacokinetics (PK) and oral bioavailability and assessed any acute observable toxicity in mice. […] We therefore opted to chronically deliver YB-537 to AD-model mice via their drinking water, so they may freely ingest the inhibitor at 50 mg/kg, with minimal intervention or trauma, for 1 month. We chose 9-month-old 5xFAD ([27]) male and female mice in double-blind experiments, so that well-progressed symptoms and pathologies would be present, to mimic clinically relevant cases in human patients ([35]), as has been previously described in this mouse model. Other than an improvement in nest quality ([36]) over time seen in animals receiving YB-537 (starting at age 8 months and ending at age 9 months), no changes to general physical parameters or wellbeing were observed over the 1 month of YB-537 ingestion (Supplemental Figure 6, A–J). […] Since learning in this paradigm was slow, and performance was poor even following 6 days of training (using 4 learning trials a day), a test day was not carried out and instead only the learning rate was measured. […]
# [2] = system: 5xFAD mice; experiment: Morris water maze in 5xFAD mice; settings: for MWM escape latency (individual mice): 5xFAD 1 month
# Protocol: We next aimed to test the effect of QR2 inhibition in AD model mice using YB-537, taking advantage of its extremely high specificity, solubility, and lack of toxicity. First, we determined YB-537 pharmacokinetics (PK) and oral bioavailability and assessed any acute observable toxicity in mice. […] We therefore opted to chronically deliver YB-537 to AD-model mice via their drinking water, so they may freely ingest the inhibitor at 50 mg/kg, with minimal intervention or trauma, for 1 month. We chose 9-month-old 5xFAD ([27]) male and female mice in double-blind experiments, so that well-progressed symptoms and pathologies would be present, to mimic clinically relevant cases in human patients ([35]), as has been previously described in this mouse model. Other than an improvement in nest quality ([36]) over time seen in animals receiving YB-537 (starting at age 8 months and ending at age 9 months), no changes to general physical parameters or wellbeing were observed over the 1 month of YB-537 ingestion (Supplemental Figure 6, A–J). Animals received the treatment for a week, and, on week 2, behavioral experiments commenced, including Morris water maze (MWM) and novel object recognition (NOR). These were carried out in parallel, with half of the animals (including both sexes and treatments) undergoing 1 of the paradigms in week 2, and the other in week 3. […] Since learning in this paradigm was slow, and performance was poor even following 6 days of training (using 4 learning trials a day), a test day was not carried out and instead only the learning rate was measured. […] Finally, during week 4, all the mice underwent DFC.
# MWM was carried out as previously described ([57]). Mice were trained 4 times a day, using 60 second trials every 30 minutes during which they were placed into the pool, each time from a different quadrant, and allowed to swim to find the escape platform. All trials were filmed with a video tracking system using EthoVision 14 (Noldus Information Technology), and escape latency, or time to find the submerged escape platform, was determined by video analysis. […]
# Morri s wat er maze ( MWM) was carried out as previously described(58). At the sam e time each consecutive day, mice were placed in the dimly lit room containing the maze for 10 min, within cages containing dry bedding (not the home cages). The maze was obscured by a non-light- permeable curtain. The maze consisted of a 1.2 m pool, with RT (21- 23 °C) water colored light grey, to hide the submerged (under 1- 2 cm) transparent, 10 cm in diam et er plastic escape platform, which was placed at t he south- western quadrant of the pool. Mi ce wer e trained 4 times a day, using 60 s trials ever y 30 min during which t he y were pl a c ed into t he pool, each time fr om a di fferent quadrant, and allowed to swim and find t he escape platform. Upon reaching t he platform, m ice were removed fr om t he pool. If the mice f ai led to find the […] within 60 s, […]
# they were carefully placed on the escape platform and held there for 15 s prior to being taken out of the pool. All trials were filmed with a video tracking system using EthoVision 14 (Noldus Information Technology), andescape latency (time to find the submer ged escape platform) was determined by manual video analysis (due to automated det ect ion settings unable to discern all mice coat c ol or s – bl a c k, white a nd brown - against the opaque water).
# Mice were individually placed within a cage and taken to a dimly lit room containing an open field arena 50 x 50 cm in size. They were gi ve n 10 min prior to be i ng placed within the arena, where f or a period of 5 min they were allowed to explore. Two weeks later, this was repeated. The mice were filmed with an Ikegami ICD-49E camera with EthoVision 14 (Noldus Information Technology). Th e fl oor was ei ther whit e or black,dependingon mous e coat c ol or, to allow automatic analysisof movement par am et ers, apar t from rearing which was manually counted. […]
# [3] = Body weight during chronic ingestion; settings: for average weight: over 25 days of consumption; for Sup. Fig. 5-2A, body weight: in g (unit assumed)
# Protocol: Supplementary Figure 6. Chronic Drinking of 50 mg/kg YB -537 for of 1 Month Causes no Changes
# in General Mouse Physiology or Behavior but Improves Nesting Behavior Over Time. […]
smiles,measurement,setting,value
Cc1ccc(-c2cn3cccc(C)c3n2)cc1S(=O)(=O)N1CCNCC1 [YB-537],adverse effects of chronic ingestion,[1],no adverse effects were seen
same,MWM escape latency (individual mice),"[2]; both sexes, Day 1",60.0 (8×) and 29.4 and 26.8 and 55.1 and 57.2 and 53.5 (2×) and 41.6 and 50.9
same,MWM escape latency (individual mice),"[2]; both sexes, Day 2",60.0 (6×) and 28.0 and 23.5 and 59.7 and 50.7 and 45.3 and 33.5 and 15.1 and 54.5 and 36.1 and 58.0
same,MWM escape latency (individual mice),"[2]; both sexes, Day 3",48.7 and 59.3 and 42.1 and 33.7 and 34.3 and 45.6 and 37.0 and 60.0 (2×) and 49.6 and 35.1 and 26.9 and 13.8 and 47.4 and 47.7 and 54.0
same,MWM escape latency (individual mice),"[2]; both sexes, Day 4, in s (unit assumed)",44.6 and 57.9 and 24.5 and 37.5 and 31.1 and 37.6 and 51.0 and 60.0 and 52.1 and 34.3 and 5.9 and 14.1 and 13.3 and 23.0 and 48.5 and 53.9
same,MWM escape latency (individual mice),"[2]; both sexes, Day 5, in s (unit assumed)",19.0 and 40.4 and 25.1 and 16.2 and 18.6 and 45.8 and 60.0 and 50.4 and 37.0 and 38.2 and 5.7 and 19.6 and 7.3 and 21.1 and 16.8 and 48.8
same,MWM escape latency (individual mice),"[2]; both sexes, Day 6",39.3 and 17.9 and 20.3 and 12.9 and 14.8 and 34.0 and 50.7 and 60.0 and 14.1 and 16.8 and 5.6 and 7.2 (2×) and 16.3 and 19.0 and 27.9
same,MWM escape latency (individual mice),"[2]; males, Day 5, in s (unit assumed)",16.2 and 18.6 and 45.8 and 60.0
same,spatial learning in MWM (escape latency over 6 days),"[2]; 5xFAD, 50 mg/kg in drinking water, 1 month, both sexes",trend toward faster spatial learning
same,average weight,[3]; 5xFAD females,22.76 ± 0.192 g
same,average weight,[3]; 5xFAD males,32.56 ± 0.279 g
same,"Sup. Fig. 5-2A, body weight","[3]; Female, Day 1",23 and 22 and 24 and 25 and 21 and 20
same,"Sup. Fig. 5-2A, body weight","[3]; Female, Day 3",25 and 20 and 24 and 23
same,"Sup. Fig. 5-2A, body weight","[3]; Female, Day 5",25 and 21 and 27 and 24 and 20
same,"Sup. Fig. 5-2A, body weight","[3]; Female, Day 9",24 and 20 and 25 and 27 and 22
same,"Sup. Fig. 5-2A, body weight","[3]; Female, Day 11",23 and 21 and 25 and 26 and 22
same,"Sup. Fig. 5-2A, body weight","[3]; Female, Day 15",25 and 22 and 26 and 23 and 24
same,"Sup. Fig. 5-2A, body weight","[3]; Female, Day 16",23 and 20 and 24
same,"Sup. Fig. 5-2A, body weight","[3]; Female, Day 18",23 and 21 and 24 and 22 and 20
same,"Sup. Fig. 5-2A, body weight","[3]; Female, Day 25",25 and 22 and 23 and 21
same,"Sup. Fig. 5-2A, body weight","[3]; Male, Day 1",34 and 42 and 33 and 36 and 31 and 28
same,"Sup. Fig. 5-2A, body weight","[3]; Male, Day 3",33 and 41 and 32 and 35 and 30 and 26
same,"Sup. Fig. 5-2A, body weight","[3]; Male, Day 5",33 and 40 and 32 and 35 and 30 and 26 and 34 and 31
same,"Sup. Fig. 5-2A, body weight","[3]; Male, Day 9",31 and 39 and 32 and 33 and 30 and 27 and 35
same,"Sup. Fig. 5-2A, body weight","[3]; Male, Day 11",31 and 32 and 34 and 30 and 28 and 35
same,"Sup. Fig. 5-2A, body weight","[3]; Male, Day 15",32 and 39 and 34 and 31 and 28 and 36
same,"Sup. Fig. 5-2A, body weight","[3]; Male, Day 18",32 and 37 and 29 and 30 and 33 and 27 and 35
same,"Sup. Fig. 5-2A, body weight","[3]; Male, Day 25",32 and 39 and 31 and 34 and 27
